Experiments:
[1] = molecular target: CK1ϵ (Homo sapiens, UniProt P49674); assay: CK1ϵ kinase assay (Caliper LABCHIP electrophoretic separation of fluoresceinated peptide substrate and product); format: biochemical; details: 200 pM CK1ϵ, 50 μM ATP, 1.5 μM peptide substrate, 22 hours at room temperature; read-out: CK1ε (IC50)
Method: (§1) CK1ϵ and CK1δ Kinase Assays
(§2) The kinase assay was performed in V-bottom 384-well plates.
(§3) The reaction was incubated at room temperature for 22 hours and terminated by adding 45 μl of 35 mM EDTA to each sample. The reaction mixture was analyzed on the Caliper LABCHIP®3000 (Caliper, Hopkinton, Mass.) by electrophoretic separation of the unphosphorylated substrate and phosphorylated product. […] Compounds were dissolved at 10 mM in dimethylsulfoxide (DMSO) and evaluated at eleven concentrations. IC50 values were derived by non-linear regression analysis.

[2] = molecular target: CK1δ (Homo sapiens, UniProt P48730); assay: CK1δ kinase assay (Caliper LABCHIP electrophoretic separation of fluoresceinated peptide substrate and product); format: biochemical; details: 200 pM CK1δ, 50 μM ATP, 1.5 μM peptide substrate, 22 hours at room temperature
CK1δ, sequence (P48730 whole entry): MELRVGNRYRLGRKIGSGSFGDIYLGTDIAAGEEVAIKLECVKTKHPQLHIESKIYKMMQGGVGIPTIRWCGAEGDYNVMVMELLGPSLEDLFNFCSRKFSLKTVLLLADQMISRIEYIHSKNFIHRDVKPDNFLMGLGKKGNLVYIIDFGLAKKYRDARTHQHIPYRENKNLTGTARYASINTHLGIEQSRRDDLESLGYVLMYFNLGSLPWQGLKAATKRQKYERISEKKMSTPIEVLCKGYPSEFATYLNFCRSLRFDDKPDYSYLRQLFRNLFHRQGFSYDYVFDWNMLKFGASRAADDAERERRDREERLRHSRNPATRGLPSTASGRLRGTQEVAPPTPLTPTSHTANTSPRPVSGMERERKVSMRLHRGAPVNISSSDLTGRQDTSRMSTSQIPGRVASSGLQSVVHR
Method: as §1, §2, §3

CK1ϵ, sequence (P49674 whole entry): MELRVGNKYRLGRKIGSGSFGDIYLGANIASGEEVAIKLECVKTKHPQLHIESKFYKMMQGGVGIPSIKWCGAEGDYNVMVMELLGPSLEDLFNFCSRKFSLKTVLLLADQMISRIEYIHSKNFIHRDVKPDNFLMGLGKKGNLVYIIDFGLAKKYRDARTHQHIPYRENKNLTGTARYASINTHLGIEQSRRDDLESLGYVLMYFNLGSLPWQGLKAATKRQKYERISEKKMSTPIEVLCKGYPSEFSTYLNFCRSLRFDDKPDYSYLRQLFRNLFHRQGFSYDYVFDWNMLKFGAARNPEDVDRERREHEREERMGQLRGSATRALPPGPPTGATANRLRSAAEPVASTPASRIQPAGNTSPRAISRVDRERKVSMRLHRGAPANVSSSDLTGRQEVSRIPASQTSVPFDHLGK

| IC50 [1] | IC50 [2] | SMILES |
| --- | --- | --- |
| 3.7 nM | 0.5 nM | O=C(Nc1cn2nc(-c3c(-c4ccc(F)cc4)nn4c3CNCC4)ccc2n1)c1ccnc(F)c1 [Example 1, 2-Fluoro-N-(6-(2-(4-fluorophenyl)-4,5,6,7-tetrahydropyrazolo[1,5-a]pyrazin-3-yl)imidazo[1,2-b]pyridazin-2-yl)isonicotinamide] |
| 5.1 nM | 0.5 nM | O=C(Nc1cn2nc(-c3c(-c4ccc(F)cc4)nn4c3CNCC4)ccc2n1)c1ccncc1 [Example 3, N-(6-(2-(4-Fluorophenyl)-4,5,6,7-tetrahydropyrazolo[1,5-a]pyrazin-3-yl)imidazo[1,2-b]pyridazin-2-yl)isonicotinamide] |
| 1.3 nM | 0.3 nM | O=C(Nc1cn2nc(-c3c(-c4ccc(F)cc4)nn4c3CNCC4)ccc2n1)c1ccnc(N2CCOCC2)c1 [Example 4, N-(6-(2-(4-Fluorophenyl)-4,5,6,7-tetrahydropyrazolo[1,5-a]pyrazin-3-yl)imidazo[1,2-b]pyridazin-2-yl)-2-morpholinoisonicotinamide] |
| 4.7 nM | 0.4 nM | O=C(Nc1cn2nc(-c3c(-c4ccc(F)cc4)nn4c3CNCC4)ccc2n1)c1cc(F)nc(F)c1 [Example 5, 2,6-Difluoro-N-(6-(2-(4-fluorophenyl)-4,5,6,7-tetrahydropyrazolo[1,5-a]pyrazin-3-yl)imidazo[1,2-b]pyridazin-2-yl)isonicotinamide] |
| 2.3 nM | 0.3 nM | O=C(Nc1cn2nc(-c3c(-c4ccc(F)cc4)nn4c3CNCC4)ccc2n1)c1ccnc(-c2cccnc2)c1 [Example 6, N-(6-(2-(4-Fluorophenyl)-4,5,6,7-tetrahydropyrazolo[1,5-a]pyrazin-3-yl)imidazo[1,2-b]pyridazin-2-yl)-[2,3′-bipyridine]-4-carboxamide] |
| 12.6 nM | 2.1 nM | O=C(Nc1cn2nc(-c3c(-c4ccc(F)cc4)nn4c3CNCC4)ccc2n1)c1ccnc(C(F)(F)F)c1 [Example 10, N-(6-(2-(4-Fluorophenyl)-4,5,6,7-tetrahydropyrazolo[1,5-a]pyrazin-3-yl)imidazo[1,2-b]pyridazin-2-yl)-2-(trifluoromethyl)isonicotinamide] |
| 15.2 nM | 1.8 nM | Cc1nc(C(F)(F)F)ccc1C(=O)Nc1cn2nc(-c3c(-c4ccc(F)cc4)nn4c3CNCC4)ccc2n1 [Example 11, N-(6-(2-(4-Fluorophenyl)-4,5,6,7-tetrahydropyrazolo[1,5-a]pyrazin-3-yl)imidazo[1,2-b]pyridazin-2-yl)-2-methyl-6-(trifluoromethyl)nicotinamide] |
| 2 nM | 0.3 nM | CC(=O)N1CCn2nc(-c3ccc(F)cc3)c(-c3ccc4nc(NC(=O)c5ccnc(F)c5)cn4n3)c2C1 [Example 12, N-(6-(5-Acetyl-2-(4-fluorophenyl)-4,5,6,7-tetrahydropyrazolo[1,5-a]pyrazin-3-yl)imidazo[1,2-b]pyridazin-2-yl)-2-fluoroisonicotinamide] |
| 4.5 nM | 0.5 nM | O=C(Nc1cn2nc(-c3c(-c4ccc(F)cc4)nn4c3CN(C(=O)c3ccncc3)CC4)ccc2n1)c1ccnc(F)c1 [Example 13, 2-Fluro-N-(6-(2-(4-fluorophenyl)-5-isonicotinoyl-4,5,6,7-tetrahydropyrazolo[1,5-a]pyrazin-3-yl)imidazo[1,2-b]pyridazin-2-yl) isonicotinamide] |
| 3.1 nM | 0.5 nM | O=C(Nc1cn2nc(-c3c(-c4ccc(F)cc4)nn4c3CN(C(=O)c3ccc(F)cc3)CC4)ccc2n1)c1ccnc(F)c1 [Example 14, 2-Fluoro-N-(6-(5-(4-fluorobenzoyl)-2-(4-fluorophenyl)-4,5,6,7-tetrahydropyrazolo[1,5-a]pyrazin-3-yl)imidazo[1,2-b]pyridazin-2-yl) isonicotinamide] |
| 0.7 nM | 0.2 nM | O=C(Nc1cn2nc(-c3c(-c4ccc(F)cc4)nn4c3CN(C(=O)CC(F)(F)F)CC4)ccc2n1)c1ccnc(F)c1 [Example 15, 2-Fluoro-N-(6-(2-(4-fluorophenyl)-5-(3,3,3-trifluoropropanoyl)-4,5,6,7-tetrahydropyrazolo [1,5-a]pyrazin-3-yl)imidazo[1,2-b]pyridazin-2-yl)isonicotinamide] |
| 4.9 nM | 0.8 nM | O=C(Nc1cn2nc(-c3c(-c4ccc(F)cc4)nn4c3CN(C(=O)CCC(F)(F)F)CC4)ccc2n1)c1ccnc(F)c1 [Example 16, 2-Fluoro-N-(6-(2-(4-fluorophenyl)-5-(4,4,4-trifluorobutanoyl)-4,5,6,7-tetrahydropyrazolo[1,5-a]pyrazin-3-yl)imidazo[1,2-b]pyridazin-2-yl) isonicotinamide] |
| 5.6 nM | 0.5 nM | O=C(Nc1cn2nc(-c3c(-c4ccc(F)cc4)nn4c3CN(C(=O)c3ccc(F)c(F)c3)CC4)ccc2n1)c1ccnc(F)c1 [Example 18, N-(6-(5-(3,4-Difluorobenzoyl)-2-(4-fluorophenyl)-4,5,6,7-tetrahydropyrazolo[1,5-a]pyrazin-3-yl)imidazo[1,2-b]pyridazin-2-yl)-2-fluoroisonicotinamide] |
| 2.7 nM | 0.2 nM | O=C(Nc1cn2nc(-c3c(-c4ccc(F)cc4)nn4c3CN(C(=O)c3cccc(F)c3)CC4)ccc2n1)c1ccnc(F)c1 [Example 19, 2-Fluoro-N-(6-(5-(3-fluorobenzoyl)-2-(4-fluorophenyl)-4,5,6,7-tetrahydropyrazolo[1,5-a]pyrazin-3-yl)imidazo[1,2-b]pyridazin-2-yl) isonicotinamide] |
| 7 nM | 0.5 nM | O=C(Nc1cn2nc(-c3c(-c4ccc(F)cc4)nn4c3CN(C(=O)c3ccnc(F)c3)CC4)ccc2n1)c1ccnc(F)c1 [Example 20, 2-Fluoro-N-(6-(5-(2-fluoroisonicotinoyl)-2-(4-fluorophenyl)-4,5,6,7-tetrahydropyrazolo[1,5-a]pyrazin-3-yl)imidazo[1,2-b]pyridazin-2-yl) isonicotinamide] |
| 3 nM | 0.2 nM | O=C(Nc1cn2nc(-c3c(-c4ccc(F)cc4)nn4c3CN(C(=O)c3cccnc3)CC4)ccc2n1)c1ccnc(F)c1 [Example 21, 2-Fluoro-N-(6-(2-(4-fluorophenyl)-5-nicotinoyl-4,5,6,7-tetrahydropyrazolo[1,5-a]pyrazin-3-yl)imidazo[1,2-b]pyridazin-2-yl) isonicotinamide] |
| 3.1 nM | 0.6 nM | CC(C)C(=O)N1CCn2nc(-c3ccc(F)cc3)c(-c3ccc4nc(NC(=O)c5ccnc(F)c5)cn4n3)c2C1 [Example 22, 2-Fluoro-N-(6-(2-(4-fluorophenyl)-5-isobutyryl-4,5,6,7-tetrahydropyrazolo[1,5-a]pyrazin-3-yl)imidazo[1,2-b]pyridazin-2-yl) isonicotinamide] |
| 0.4 nM | 0.1 nM | O=C(Nc1cn2nc(-c3c(-c4ccc(F)cc4)nn4c3CN(C(=O)c3ccccc3F)CC4)ccc2n1)c1ccnc(F)c1 [Example 23, 2-Fluoro-N-(6-(5-(2-fluorobenzoyl)-2-(4-fluorophenyl)-4,5,6,7-tetrahydropyrazolo[1,5-a]pyrazin-3-yl)imidazo[1,2-b]pyridazin-2-yl) isonicotinamide] |

| SMILES | IC50 [1] | IC50 [2] |
| --- | --- | --- |
| Cc1nc(-c2ccncc2)sc1C(=O)Nc1cn2nc(-c3c(-c4ccc(F)cc4)nn4c3CNCC4)ccc2n1 [Example 2, N-(6-(2-(4-Fluorophenyl)-4,5,6,7-tetrahydropyrazolo[1,5-a]pyrazin-3-yl)imidazo[1,2-b]pyridazin-2-yl)-4-methyl-2-(pyridin-4-yl)thiazole-5-carboxamide] | 2.4 nM | 0.2 nM |
